Experimental data reported in US6613322B2, “Method for treating a subject suffering from conditions associated with an extracellular zinc sphingomyelinase” (The Trustees of Columbia University in the City of New York, priority 1997, dated 2003).

Tests used:
S-SMase = biological target: T1, S-SMase (Mus musculus, UniProt Q04519); assay: SMase assay of conditioned medium from J774 macrophages (SM micelles, pH 5.0); format: biochemical; conditions: 0.1 mM ZnCl2 versus 5 mM EDTA
T1 construct: endogenous in cells; host or cells: J774.A1 macrophages, serum-free conditioned medium
T1 sequence (Q04519 45-627): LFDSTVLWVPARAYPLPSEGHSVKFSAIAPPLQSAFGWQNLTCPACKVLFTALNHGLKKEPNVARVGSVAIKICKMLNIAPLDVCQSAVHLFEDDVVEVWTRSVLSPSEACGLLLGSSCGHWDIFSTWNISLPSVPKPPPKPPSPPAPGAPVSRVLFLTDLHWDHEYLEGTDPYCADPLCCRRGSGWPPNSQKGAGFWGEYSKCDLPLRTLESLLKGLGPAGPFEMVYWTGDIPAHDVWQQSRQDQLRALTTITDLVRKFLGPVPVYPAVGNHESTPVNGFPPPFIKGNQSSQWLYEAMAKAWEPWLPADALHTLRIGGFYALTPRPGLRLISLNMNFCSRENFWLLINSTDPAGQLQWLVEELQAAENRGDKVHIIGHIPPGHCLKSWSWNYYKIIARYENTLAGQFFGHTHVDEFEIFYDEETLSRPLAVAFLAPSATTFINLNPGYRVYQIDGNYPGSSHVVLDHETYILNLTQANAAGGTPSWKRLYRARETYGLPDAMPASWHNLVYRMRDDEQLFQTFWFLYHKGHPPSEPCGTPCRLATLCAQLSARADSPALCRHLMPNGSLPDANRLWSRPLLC
Protocol: FIGS. 14A-B. Sequential chelation and addition of Zn^2+ to secreted and intracellular SMase. Serum-free conditioned medium and a cell homogenate from J774 macrophages were prepared as described in “Experimental Procedures”. FIG. 14A, conditioned medium (CM) was assayed for SMase activity using 250 nM [^3H]sphingomyelin in Triton X-100 micelles in the presence of either 5 mM EDTA (first bar) or 0.1 mM ZnCl2 (second bar) for 1 h at 37° C. at pH 5.0. An aliquot of the Zn-activated conditioned medium was then incubated for 18 h in the presence of 10 mM EDTA, 10 mM 1,10-phenanthroline, and 0.6% Triton X-100 at 4° C. (EDTA PHNANTH) and then assayed for SMase activity (third bar). After chelation, a portion of this partially inactivated conditioned medium was then dialyzed against zinc-containing buffer C (150 mM NaCl, 10 mM Tris-HCl, 1 mM ZnCl2, 0.6% Triton X-100, pH 7.4) for 18 h and then assayed for SMase activity (fourth bar). FIG. 14B, an aliquot of cell homogenate (Cell Homgn) was assayed for SMase activity in the presence of assay buffer alone (first bar), 5 mM EDTA (second bar), or 0.1 mM ZnCl2 (third bar). Another aliquot of cell homogenate was incubated for 8 h in the presence of 10 mM EDTA, 10 mm 1,10-phenanthroline, and 0.6% Triton X-100 (EDTA PHNANTH) at 4° C. and then assayed for SMase activity (fourth bar). An aliquot of this chelator-treated cell homogenate was then dialyzed against zinc-containing buffer C for 18 h and then assayed for SMase activity (fifth bar).
(§1) SMase Assay—As previously described (Schissel et al., 1996), the standard 200-μl assay mixture consisted of up to 40 μl of sample (conditioned media or homogenized cells; see above) and a volume of assay buffer (0.1 M sodium acetate, pH 5.0) to bring the volume to 160 μl. […] The ceramide spots were scraped and directly counted to quantify [^3H]ceramide. Typically, the assay reactions contained approximately 20 μg of cellular homogenate protein and a volume of conditioned media derived from a quantity of cells equivalent to approximately 50 μg of cellular protein.

L-SMase = assay: SMase assay of CHO cell homogenate and 16,000-x-g pellet; format: biochemical, Chinese hamster
Protocol: FIGS. 18A-B. Zn^2+-dependency of SMase in a sonicated cell homogenate and 16,000-x-g pellet. CHO cells were grown to 90% confluency in Ham's F-12 media containing 10% HI-FBS and PSG and then washed 3 times with PBS before incubation in serum-free medium containing 0.2% BSA for 24 h. The cells were then washed 3 times in 0.25 M sucrose and the total cell homogenate and the 16,000-x-g cellular subfraction were isolated as described in “Experimental Procedures”. Twelve micrograms of the cell homogenate (Homogenate) and 2.5 μg of the 16,000-x-g pellet (16K-xg Pellet) were assayed for SMase activity in the presence of either 5 mM EDTA (hatched bars) or 0.1 mM ZnCl2 (solid bars) for 1 h at 37° C. at pH 5.0. […]
as §1

[1] = system: S-SMase secretion by HUVECs; assay: Cytokine regulation of S-SMase secretion by HUVECs (SMase activity in conditioned media); format: cell-based, human; conditions: 18 h, IL-1β 5 ng/ml, interferon-γ 1000 units/ml
Protocol: Conditioned media (FIG. 23A) and cell homogenates (FIG. 23B) from these cells were then assayed for SMase activity in the presence or absence of 0.1 mM ZnCl2, respectively.
The cells were then washed 3 times with PBS and incubated for 24 h in 1 ml fresh serum-free media containing 0.2%6 BSA. This 24-h conditioned medium was collected for SMase assays.
Harvesting of Cells and Conditioned Media—Following the incubations described above and in the figure legends, cells were placed on ice and the serum-free conditioned media was removed. The cells were washed two times with ice-cold 0.25 M sucrose and scraped into 0.3 ml and 3.0 ml of this sucrose solution per 35-mm and 100-mm dishes, respectively. Unless indicated otherwise, the scraped cells were disrupted by sonication on ice using three 5-second bursts (Branson 450 Sonifier), and the cellular homogenates were assayed for total protein by the method of Lowry et al. (22) and for SMase activity as described below. The conditioned media were spun at 800×g for 5 min to pellet any contaminating cells and concentrated six-fold using a Centriprep 30 (Amicon; Beverly, Mass.) concentrator (molecular weight cut off=30,000).
Typically, our assay reactions contained approximately 20 μg of cellular homogenate protein and a volume of conditioned media derived from a quantity of cells equivalent to approximately 50 μg of cellular protein.

Molecule | activation of S-SMase (S-SMase) | effect of exogenous Zn2+ on SMase activity (L-SMase; 16,000-x-g pellet (intact lysosomes), sonicated) | effect of exogenous Zn2+ on SMase activity (L-SMase; sonicated cell homogenate) | increase of S-SMase activity / secretion (conditioned media) [1]
[Cl-].[Cl-].[Zn+2] [Zn^2+, ZnCl2] | markedly activated | substantially stimulated | no effect | –
IL-1β: human recombinant interleukin-1β | – | – | – | ~3 fold
